Laboratory results from patent CN111729074A, “多肽rl25在制备抗肿瘤药物中的应用” (Zhuhai Campus Of Zunyi Medical University, priority 2020, dated 2020).

Columns and labels:
[1] = test system: tumour (肿瘤); settings: background statement on LL37; cited from earlier work
[2] = test system: HK2 cells (人肾小管上皮细胞); assay: MTT assay of cell proliferation, normal cells HK2 (24 h); type: cell-based, human; settings: for toxicity / side effect on HK2: in words; for toxicity to normal cells: summary statement
[3] = test system: normal cells (正常细胞); settings: background statement on LL37; cited from earlier work
[4] = test system: 3 tumour cells HCT-8, SKVO3, MCF-7 (3种肿瘤细胞); assay: MTT assay of cell proliferation, tumour cells (24 h); type: cell-based; settings: for inhibitory effect on the 3 tumour cells: HCT-8, SKVO3, MCF-7, 24 h, in words (IC50 table is a picture); for killing effect on / toxicity to various tumour cells: summary statement
[5] = test system: HCT-8 cells; assay: HCT-8 apoptosis, Annexin V-FITC/PI flow cytometry (24 h); type: cell-based, human; settings: for concentration dependence of apoptosis / average apoptosis rate / early apoptosis: HCT-8, 24 h; for early apoptosis: versus control
[6] = Earlier antibacterial test; settings: initial tests
[7] = test system: HCT-8 cells; assay: ROS in HCT-8 cells, DCFH-DA flow cytometry (24 h); type: cell-based, human; settings: HCT-8, 24 h; for ROS content compared with control: P>0.05
[8] = test system: HCT-8 cells; assay: MTT assay of cell proliferation, HCT-8 (therapeutic index); type: cell-based, human; settings: in words
[9] = test system: HCT-8 cells; assay: HCT-8 mitochondrial membrane potential, JC-1 flow cytometry (24 h); type: cell-based, human; settings: HCT-8, 24 h; for mitochondrial membrane potential: with rising concentration (0-4 μM), versus control, P<0.01

For “LL37: LL37是hCAP-18蛋白中含有37个氨基酸的C端 [reference compound]”, the antitumour effect [1] is given as “良好的抗肿瘤效应”, the “toxicity / side effect on HK2” value ([2]; HK2, 24 h) is given as “毒副作用也很明显” and the “toxicity to normal cells” value [3] is given as “对正常细胞的毒性较大”. For the same substance, the “inhibitory effect on the 3 tumour cells” value [4] was “抑制效果均表现较好”.
For RL25: 氨基酸序列为:RLNRLFRKIRQVIRKFEKGIKEKSK, the “toxicity / side effect on HK2” value ([2]; HK2, 24 h) was “对正常细胞的毒性小”, the “toxicity to normal cells compared with LL37” value ([2]; HK2, 24 h, versus positive drug LL37) was “毒性明显更小” and the “toxicity to normal cells” value [2] was “毒性轻微”. The “concentration dependence of apoptosis” value [5] was “明显的浓度依赖性”, the average apoptosis rate ([5]; 1 μM) was 29.56% and the average apoptosis rate ([5]; 2 μM) was 37.44%. For the same substance, the average apoptosis rate ([5]; 4 μM) was 55.15%, the early apoptosis [5] was “早期凋亡细胞的数目逐渐增加” and the “killing effect compared with SE37” value ([5]; HCT-8, 4 μM RL25 versus 6 μM SE37) was “强于浓度为6μM的SE37”. The antibacterial performance [6] was “较好的抑菌性能”, the “ROS content, trend” value ([7]; 0-4 μM) was “先升高后降低” and the “ROS content compared with control” value ([7]; 4 μM) was “无明显差异”. The “ROS, mean fluorescence intensity (peak)” value ([7]; peak at 1 μM, versus control P<0.01) was 4670±91.804, the “therapeutic index, IC50(HK2)/IC50(tumour cells)” value ([4]; 3 tumour cells, in words) was “较高” and the “therapeutic index compared with SE37” value ([4]; 3 tumour cells, versus SE37) was “均高于SE37的治疗指数”. For the same substance, the “inhibitory effect on tumour cells compared with LL37” value ([4]; 3 tumour cells, versus positive drug LL37) was “相近或更好”, the “inhibitory effect on the 3 tumour cells” value [4] was “很好的抑制效果” and the “killing effect on / toxicity to various tumour cells” value [4] was “良好的杀伤效果”. The “therapeutic index, IC50(HK2)/IC50(HCT-8)” value [8] was “较高” and the mitochondrial membrane potential [9] was “逐渐降低”.
In the case of “SE37: 抗菌肽SE37(其氨基酸序列为:SETRPVLNRLFDKIRQVIRKFEKGIKEKSKRFFDGLL) [reference compound]”, the “toxicity / side effect on HK2” value ([2]; HK2, 24 h) is reported as “毒副作用也很明显”, the “toxicity to normal cells” value [2] is reported as “毒性均较大” and the “concentration dependence of apoptosis” value [5] is reported as “一定的浓度依赖性”. For the same substance, the average apoptosis rate ([5]; 3 μM) was 27.39%, the average apoptosis rate ([5]; 6 μM) was 36.28% and the early apoptosis [5] was “出现明显的早期细胞凋亡”. For the same substance, the “ROS content, trend” value ([7]; 0-8 μM) was “先升高后降低”, the “ROS content compared with control” value ([7]; 8 μM) was “已无明显变化” and the “ROS, mean fluorescence intensity (peak)” value ([7]; peak at 2 μM) was 3127.753±96.501. The “inhibitory effect on the 3 tumour cells” value [4] was “抑制效果均表现较好”, the “killing effect on / toxicity to various tumour cells” value [4] was “毒性均较大” and the FL1 channel fluorescence ([9]; 0-4 μM) was “荧光增多”. For the same substance, the FL2 channel fluorescence ([9]; 0-4 μM) was “荧光减少”, the “FL1 channel fluorescence signal” value ([9]; 4 μM versus 2 μM) was “并未明显增加” and the mitochondrial membrane potential [9] was “明显降低”.
